According to US20090325959A1 (priority 2008, published 2009):
Like-named read-outs stand apart in the source and are kept apart here.

How the values were obtained:
p70S6K human enzyme = biological target: T1, p70S6K human enzyme (Homo sapiens, UniProt P23443, T412E); test: p70S6K inhibition assay (IMAP FP); assay type: biochemical;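 also: kinase reaction run at room temperature, phosphorylated substrate captured on IMAP beads and read as fluorescence polarization in mP, IC50 then converted to Ki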
T1 construct: purchased Upstate Chemicon 14-486
T1 sequence (P23443 1-421 T412E limits assumed): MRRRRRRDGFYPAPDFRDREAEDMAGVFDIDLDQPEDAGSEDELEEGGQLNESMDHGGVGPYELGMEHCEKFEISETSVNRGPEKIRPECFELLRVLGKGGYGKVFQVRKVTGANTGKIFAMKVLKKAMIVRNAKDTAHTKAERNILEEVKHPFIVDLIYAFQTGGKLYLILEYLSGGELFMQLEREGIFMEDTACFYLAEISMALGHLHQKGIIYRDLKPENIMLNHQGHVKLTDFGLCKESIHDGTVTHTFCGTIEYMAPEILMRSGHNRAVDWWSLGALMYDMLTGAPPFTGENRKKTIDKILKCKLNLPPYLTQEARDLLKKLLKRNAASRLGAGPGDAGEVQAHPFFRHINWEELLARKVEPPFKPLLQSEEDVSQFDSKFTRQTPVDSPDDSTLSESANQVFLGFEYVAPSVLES

[1] = Compound plasma concentrations in unsensitized mice at 15 min post administration; assay type: in vivo; settings: mouse, 15 μmol/kg; mean compound plasma concentration in mice at 15 minutes post oral administration; read-out: Mouse Oral PK
ROCK2 = biological target: T2, ROCK2 (Homo sapiens, UniProt O75116); test: Rho kinase inhibition assay (IMAP fluorescence polarization), ROCK2; assay type: biochemical;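 also: kinase reaction started with 10 µM ATP and run 60 min at room temperature, then phosphorylated substrate captured on IMAP beads for 30 min and fluorescence polarization read in mP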
T2 construct: purchased Upstate/Chemicon 14-451
T2 sequence (O75116 11-552 limits assumed): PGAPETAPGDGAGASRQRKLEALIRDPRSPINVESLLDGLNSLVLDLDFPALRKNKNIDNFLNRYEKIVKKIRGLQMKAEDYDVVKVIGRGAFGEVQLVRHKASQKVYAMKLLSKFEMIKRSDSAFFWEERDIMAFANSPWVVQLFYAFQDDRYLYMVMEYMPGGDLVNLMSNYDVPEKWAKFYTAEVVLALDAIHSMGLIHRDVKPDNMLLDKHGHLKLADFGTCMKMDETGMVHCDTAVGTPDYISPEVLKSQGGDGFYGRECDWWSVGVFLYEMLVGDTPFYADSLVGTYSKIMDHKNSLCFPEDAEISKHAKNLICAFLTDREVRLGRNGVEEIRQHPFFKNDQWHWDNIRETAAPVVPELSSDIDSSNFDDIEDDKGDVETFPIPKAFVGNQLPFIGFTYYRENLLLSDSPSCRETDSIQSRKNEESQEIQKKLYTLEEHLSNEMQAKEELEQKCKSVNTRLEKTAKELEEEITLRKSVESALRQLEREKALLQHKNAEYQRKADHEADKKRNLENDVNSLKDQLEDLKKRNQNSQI
Description: (§1) Following the pre-incubation, 10 μM ATP was added to initiate the reaction. After 60 minutes at room temperature, Molecular Devices IMAP™ binding solution was added to bind phosphorylated substrate. After 30 minutes of incubation in the presence of the IMAP™ beads, the fluorescence polarization was read and the ratio was reported as mP. IC50 values for compounds and EC50 values for ATP were calculated using the Prism software from Graphpad.

ROCK1 = biological target: T3, ROCK1 (Homo sapiens, UniProt Q13464); test: Rho kinase inhibition assay (IMAP fluorescence polarization), ROCK1; assay type: biochemical;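 also: kinase reaction run 60 min at room temperature, then phosphorylated substrate captured on IMAP beads for 30 min, with fluorescence polarization read in mP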
T3 construct: purchased Upstate/Chemicon 14-601
T3 sequence (Q13464 17-535 limits assumed): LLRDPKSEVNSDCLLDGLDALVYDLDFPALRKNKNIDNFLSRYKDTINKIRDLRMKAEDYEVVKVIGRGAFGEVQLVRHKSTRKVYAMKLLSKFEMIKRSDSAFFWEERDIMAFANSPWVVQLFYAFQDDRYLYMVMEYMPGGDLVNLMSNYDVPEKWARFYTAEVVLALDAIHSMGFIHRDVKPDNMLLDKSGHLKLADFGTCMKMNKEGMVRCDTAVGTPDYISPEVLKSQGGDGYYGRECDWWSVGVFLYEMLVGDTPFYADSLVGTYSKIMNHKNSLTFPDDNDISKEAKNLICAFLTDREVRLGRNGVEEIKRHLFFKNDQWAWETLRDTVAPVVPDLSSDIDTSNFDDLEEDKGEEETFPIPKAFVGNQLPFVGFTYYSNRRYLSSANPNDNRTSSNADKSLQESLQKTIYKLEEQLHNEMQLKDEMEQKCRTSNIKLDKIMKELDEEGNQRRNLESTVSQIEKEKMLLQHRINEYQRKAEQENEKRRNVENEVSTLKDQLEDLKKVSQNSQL
Description: as §1

Akt3 human enzyme = biological target: T4, Akt3 human enzyme (Homo sapiens, UniProt Q9Y243); test: Akt3 inhibition assay (IMAP FP); assay type: biochemical;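 also: kinase reaction run 60 min at room temperature after 30 µM ATP start, phosphorylated substrate captured on IMAP beads and read as fluorescence polarization (mP)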
T4 construct: purchased Upstate Chemicon 14-502
T4 sequence (Q9Y243 whole entry): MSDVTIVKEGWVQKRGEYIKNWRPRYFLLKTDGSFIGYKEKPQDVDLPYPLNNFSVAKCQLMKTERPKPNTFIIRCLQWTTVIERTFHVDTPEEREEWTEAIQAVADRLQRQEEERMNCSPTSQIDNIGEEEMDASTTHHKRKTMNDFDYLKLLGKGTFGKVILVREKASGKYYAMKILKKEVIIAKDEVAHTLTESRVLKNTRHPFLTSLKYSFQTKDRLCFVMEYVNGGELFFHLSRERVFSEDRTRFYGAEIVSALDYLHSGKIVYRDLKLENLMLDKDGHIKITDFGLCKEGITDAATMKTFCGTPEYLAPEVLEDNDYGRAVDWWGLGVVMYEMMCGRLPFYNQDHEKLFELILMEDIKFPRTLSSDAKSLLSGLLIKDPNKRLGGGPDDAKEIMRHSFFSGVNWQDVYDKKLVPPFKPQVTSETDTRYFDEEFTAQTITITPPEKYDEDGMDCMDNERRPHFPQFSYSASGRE

[2] = 30 μM ATP, Ki=IC50/(1+([ATP Challenge]/EC50 ATP)), read-out: p70S6K Ki, Avg
[3] = average Ki, read-out: p70S6K Ki
[4] = 10 μM ATP, read-out: ROCK2 Ki, Avg
[5] = 30 μM ATP, Ki=IC50/(1+([ATP Challenge]/EC50 ATP)), read-out: Akt3 Ki, Avg

Structure (SMILES)	Ki (p70S6K human enzyme; [2]) [nM]	Ki (p70S6K human enzyme; [3]) [nM]	concentration at 15 min [1] [nM]	Ki (ROCK2; [4]) [nM]	Ki (ROCK2; average Ki, read-out: ROCK2 Ki) [nM]	Ki (ROCK1; Avg, 10 μM ATP) [nM]	Ki (ROCK1; average Ki) [nM]	Ki (Akt3 human enzyme; [5]) [nM]	Ki (Akt3 human enzyme; average Ki, read-out: Akt3 Ki) [nM]
c1cc2c(cc1CN1CCC[C@H](Nc3ccc4[nH]ncc4c3)C1)OCCO2 [Compound 1.166, (S)-N-(1-((2,3-dihydrobenzo[b][1,4]dioxin-6-yl)methyl)piperidin-3-yl)-1H-indazol-5-amine]	5160	5160	342	8	8	95.2	95.2	18100	18100
Cc1cccc(CN2CCC[C@H](Nc3ccc4[nH]ncc4c3)C2)c1 [Compound 1.171, (S)-N-(1-(3-methylbenzyl)piperidin-3-yl)-1H-indazol-5-amine]	3420	3420	369	16	16	109	109	9330	9330
c1cc(CN2CCC[C@H](Nc3ccc4[nH]ncc4c3)C2)cc(C2CC2)c1 [Compound 1.186, (S)-N-(1-(3-cyclopropylbenzyl)piperidin-3-yl)-1H-indazol-5-amine]	1610	1610	2170	11.9	11.9	129	129	10200	10200
NC(=O)COc1cccc(CN2CCC[C@H](Nc3ccc4[nH]ncc4c3)C2)c1 [Compound 1.195]	2730	2730	108	10.3	10.3	196	196	22000	22000
CCOC(=O)COc1cccc(CN2CCC[C@H](Nc3ccc4[nH]ncc4c3)C2)c1 [Compound 1.200, (S)-ethyl 2-(3-((3-(1H-indazol-5-ylamino)piperidin-1-yl)methyl)phenoxy)acetate]	3900	3900	0	5.9	5.9	76.5	76.5	10600	10600
CS(=O)(=O)Nc1cc(CN2CCC[C@@H](Nc3ccc4[nH]ncc4c3)C2)ccc1Cl [Compound 1.212, (R)-N-(5-((3-(1H-indazol-5-ylamino)piperidin-1-yl)methyl)-2-chlorophenyl)methanesulfonamide]	894	894	863	3.9	3.9	44.2	44.2	390	390
OCCN1CCc2ccc(CN3CCC[C@H](Nc4ccc5[nH]ncc5c4)C3)cc21 [Compound 1.217, (S)-2-(6-((3-(1H-indazol-5-ylamino)piperidin-1-yl)methyl)indolin-1-yl)ethanol]	3500	3500	293	12.1	12.1	70.1	70.1	10300	10300
NC(=O)c1cccc(CN2CCC[C@H](Nc3ccc4[nH]ncc4c3)C2)c1 [Compound 1.219, (8)-3-((3-(1H-indazol-5-ylamino)piperidin-1-yl)methyl)benzamide]	4970	4970	1680	15.4	15.4	344	344	38300	38300
OCc1ccc(CN2CCC[C@H](Nc3ccc4[nH]ncc4c3)C2)cc1 [Compound 1.223, (S)-(4-((3-(1H-indazol-5-ylamino)piperidin-1-yl)methyl)phenyl)methanol]	3100	3100	13	15.7	15.7	239	239	11100	11100
Cc1ccc(CN2CCC[C@H](Nc3ccc4[nH]ncc4c3)C2)cc1NS(C)(=O)=O [Compound 1.233, (S)-N-(5-((3-(1H-indazol-5-ylamino)piperidin-1-yl)methyl)-2-methylphenyl)methanesulfonamide]	2000	2000	41	1.3	1.3	47.2	47.2	2630	2630
CCCCS(=O)(=O)Nc1cc(CN2CCC[C@H](Nc3ccc4[nH]ncc4c3)C2)ccc1C [Compound 1.236, (S)-N-(5-((3-(1H-indazol-5-ylamino)piperidin-1-yl)methyl)-2-methylphenyl)butane-1-sulfonamide]	2760	2760	48	2.1	2.1	49.3	49.3	3720	3720
